Laboratory results published in PMC7004148, “Flexible Fragment Growing Boosts Potency of Quorum‐Sensing Inhibitors against Pseudomonas aeruginosa Virulence” (Chemmedchem, 2019).
Values joined by “and” are separate entries in the source; they are usually repeats but may differ in a detail not shown here. Identical values can stand only once.

Tests used:
[1] = test system: pyocyanin in P. aeruginosa PA14; assay: Pyocyanin assay in P. aeruginosa PA14 cultures; assay type: cell-based, Pseudomonas aeruginosa PA14; settings: Pseudomonas aeruginosa; for IC50: PA14, read-out: Pyocyanin IC50, PA14 cultures, photometric quantification, mean of at least two independent experiments, SD<25 %
Description: (§1) 6. Effects in P. aeruginosa
(§2) Pyocyanin Assay. The inhibition of virulence factor pyocyanin was measured as described previously[26] following a procedure established by Essar et al.[28] Briefly, Pseudomonas aeruginosa PA14 cultures were grown in the presence of inhibitors or DMSO as control for 16 h. Pyocyanin was determined photometrically after extraction of the cultures with chloroform and re-extraction with 0.2 M HCl. Protonated red colored pyocyanin was determined by measuring OD520 and normalizing to OD600. None of the compound impaired bacterial viability as observed by the OD600 parameter. Inhibition values were expressed in relation to the DMSO control. Each value is the mean of at least two independent experiments with n=3.
(§3) The given IC50 values represent the mean of at least two experiments using at least five different concentrations. Curve fitting was performed using the log (inhibitor) vs response model with constrained bottom = 0 and top =100 (GraphPad Prism 5.0).
(§4) Figure S4: Inhibition of virulence factor pyocyanin was evaluated in the clinical isolate PA14.
(§5) Representative dose-response curves a) compound 11 b) compound 20. Black dotes (•) represent the reduction of pyocyanin in presents of a given compound concentration relative to DMSO control (= 0 %). The continuous black line is the none -linear regression analysis to […]
(1 picture or pasted object on this page, not shown here)

PqsR [2] = molecular target: T1, PqsR (Pseudomonas aeruginosa, UniProt Q9I4X0); assay: biochemical; assay type: binding; parameters: H6SUMOPqsRc87 and T265A mutant H6SUMOPqsRc87 for ITC studies was expressed; made in house; host or cells: E. coli BL21 (λDE3)
Description: 3.2 Expression and Purification of H6SUMOPqsRc87
H6SUMOPqsRc87 and T265A mutant H6SUMOPqsRc87 for ITC studies was expressed and purified as previously reported.[8,9] Briefly, E. coli BL21 (λDE3) transfected with the pSUMO3_ck4_pqsRC87 or pSUMO3_ck4_T265ApqsRC87 plasmid[8] were grown in LB medium containing 50 µg mL-1 kanamycin at 37 °C to an OD600 of approximately 0.8 and expression was induced with 0.2 mM IPTG for 16 h at 16 °C. The protein was purified using nickel affinity chromatography in a one step gradient.
ITC titrations were performed as described before.[8,9] Briefly, ITC experiments were carried out using an ITC200 instrument (Microcal Inc., GE Healthcare). The titrations were performed on 50-150 µM H6SUMO-PqsRC87 in the 200 µL sample cell using 19 injections of 2 µL ligand solution (0.5-1.5 mM) every 180 s. The data were collected and the area under each peak was integrated. To correct for heats of dilution and mixing the final base line consisting of small peaks of the same size at the end of the titration were substracted.
Target sequence in this assay (Q9I4X0 87-332): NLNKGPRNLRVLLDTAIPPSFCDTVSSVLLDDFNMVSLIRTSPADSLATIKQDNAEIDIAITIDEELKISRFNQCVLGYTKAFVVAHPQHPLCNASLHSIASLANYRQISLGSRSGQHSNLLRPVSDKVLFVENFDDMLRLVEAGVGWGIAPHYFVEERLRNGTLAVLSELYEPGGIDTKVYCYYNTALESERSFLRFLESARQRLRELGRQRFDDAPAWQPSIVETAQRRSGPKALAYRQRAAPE

[3] = test system: HHQ levels in PA14pqsH strain; assay: HHQ quantification in PA14pqsH cultures (UHPLC-MS/MS); assay type: cell-based; settings: Pseudomonas aeruginosa, read-out: HHQ inhibition
Description: (§6) determine IC50 values using a log (inhibitor) vs. response model with constrains (bottom = 0; top =100) (Graph Pad Prism 5.04).
(§7) HHQ and HQNO Quantification. Extracellular HHQ and HQNO were measured as previously reported[29] following a modified procedure of Lépine et al.:[30] Briefly, P. aeruginosa PA14pqsH cultures were grown in the presence of DMSO as a control or DMSO solutions of inhibitors for 17 h. HHQ and HQNO were quantified from ethyl acetate extracts using 5,6,7,8-tetradeutero-2-heptyl-4(1H)-quinolone (HHQ-d4) as internal standard (IS).
(§8) UHPLC-MS/MS analysis was performed as described in detail by Storz et al.[31] The following ions were monitored (mother ion [m/z], product ion [m/z], scan time [s], scan width [m/z], […]
(§9) quantification was performed using Xcalibur software with the use of a calibration curve relative to the area of the IS. Given data represent the mean of at least two independent experiments with n=3 and were expressed as percentage inhibition relative to DMSO control.

[4] = test system: Pseudomonas aeruginosa PA14; assay type: cell-based; settings: PA14 cultures grown 16 h in the presence of inhibitors
Description: as §1, §2, §3, §4, §5

[5] = test system: HQNO levels in PA14pqsH strain; assay: HQNO quantification in PA14pqsH cultures (UHPLC-MS/MS); assay type: cell-based; settings: Pseudomonas aeruginosa, read-out: HQNO inhibition
Description: as §6, §7, §8, §9

PqsR [6] = molecular target: T1, PqsR; assay: PqsR β-galactosidase reporter gene assay in E. coli; assay type: cell-based; parameters: expressed in transfected cells; host or cells: E. coli DH5α carrying plasmid pEAL08-2; settings: for IC50 (inverse agonistic/antagonistic activity): in the presence of 50 nM PQS, n.i.=no inhibition (activity≤15 %)
Description: 5. E. coli reporter-gene assay & dose-response curves
PqsR Reporter gene assay in E. coli. The inverse agonistic/antagonistic activity of potential PqsR ligands was evaluated in a β-galactosidase reporter gene assay in E. coli as previously described.[26] In short, test compounds were co-incubated with E. coli DH5α cells containing the plasmid pEAL08-2,[27] which expresses PqsR and the β-galactosidase LacZ under the control of the pqsA promoter. The inverse agonistic/antagonistic activity of compounds was measured in the presence of 50 nM PQS. After incubation, galactosidase activity was quantified photometrically and expressed as ratio of controls. The given IC50 values represent the mean of at least two independent experiments using at least eight different concentrations of test compound with n = 4. Non-linear regression analysis was done using the log (inhibitor) vs response model included in the GrapPad Prism 5.0 software package.
Target sequence in this assay (Q9I4X0 whole entry): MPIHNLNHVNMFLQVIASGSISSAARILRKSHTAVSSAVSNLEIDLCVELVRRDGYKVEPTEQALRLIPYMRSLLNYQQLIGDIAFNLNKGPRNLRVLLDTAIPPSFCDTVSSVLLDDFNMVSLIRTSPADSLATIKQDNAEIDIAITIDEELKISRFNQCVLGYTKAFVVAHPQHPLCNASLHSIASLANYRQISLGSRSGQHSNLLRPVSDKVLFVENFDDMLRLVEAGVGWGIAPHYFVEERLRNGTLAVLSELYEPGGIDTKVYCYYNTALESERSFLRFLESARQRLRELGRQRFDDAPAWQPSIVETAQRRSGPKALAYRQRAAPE

O=C(CSc1nc2ccc([N+](=O)[O-])cc2[nH]1)Nc1ccc(Oc2ccccc2)cc1 [Compound R1, reference compound]
IC50 [1]: 120 nM

Nc1cc(NCc2ccccc2)cc(C(F)(F)F)n1 [Compound 12]
Kd (PqsR [2]): 1.4 ± 0.5 µM | -TΔS (PqsR [2]; Table S1): 3.2 ± 0.5 kcal/mol | ΔG (PqsR [2]; Table S1): -8.1 ± 0.3 kcal/mol | EE (PqsR [2]; Table S1, enthalpic efficiency): 0.57 kcal/mol | LE (PqsR [2]; Table S1, ligand efficiency): 0.43 kcal/mol

Nc1cc(NCc2ccc(F)cc2F)cc(C(F)(F)F)n1 [Compound 13]
Kd (PqsR [2]): 1.3 ± 0.3 µM | -TΔS (PqsR [2]; Table S1): 3.5 ± 0.8 kcal/mol | ΔG (PqsR [2]; Table S1): -8.0 ± 0.1 kcal/mol | EE (PqsR [2]; Table S1, enthalpic efficiency): 0.55 kcal/mol | LE (PqsR [2]; Table S1, ligand efficiency): 0.40 kcal/mol

Nc1cc(NCC(=O)Nc2ccc(F)cc2)cc(C(F)(F)F)n1 [Compound 22]
inhibition at 100 µM ([1]; PA14, read-out: Pyocyanin inhibition): 37%

Nc1ncccc1Br [Compound 6]
Kd (PqsR [2]): > 50 µM

Nc1cc(Br)ccn1 [Compound 5]
Kd (PqsR [2]): 21.3 ± 3.4 µM | EE (PqsR [2]; Table 1, EE=−ΔH/(heavy atom count)): 0.72 kcal/mol | ΔG (PqsR [2]; Table 1, ITC at 298 K): -6.4 ± 0.1 kcal/mol | ΔH (PqsR [2]; Table 1, ITC at 298 K): -5.8 ± 0.1 kcal/mol | −TΔS (PqsR [2]; Table 1, ITC at 298 K): -0.6 ± 0.2 kcal/mol | LE (PqsR [2]; Table 1, LE=−ΔG/(heavy atom count)): 0.80 kcal/mol

Nc1cc(NCCCc2ccc(F)cc2)cc(C(F)(F)F)n1 [Compound 20]
inhibition at 100 µM [3]: 56 ± 4% | Bacterial viability (OD600) [4]: without affecting bacterial viability | IC50 [1]: 5900 nM | EE (PqsR [2]; Table S1, enthalpic efficiency): 0.50 kcal/mol | inhibition at 100 µM [5]: 48 ± 1% | boost in potency (IC50) versus 11 (PqsR [6]; E. coli reporter gene assay, 20 compared with 11): 20 fold

Nc1cc(C#CC2CC2)cc(C(F)(F)F)n1 [Compound 9]
Kd (PqsR [2]): 7.5 ± 0.1 µM | -TΔS (PqsR [2]; Table S1): -3.8 ± 0.6 kcal/mol | ΔG (PqsR [2]; Table S1): -6.9 ± 0.0 kcal/mol | ΔH (PqsR [2]; Table S1): -3.7 ± 0.6 kcal/mol and -3.7 kcal/mol | EE (PqsR [2]; Table S1, enthalpic efficiency): 0.23 kcal/mol | LE (PqsR [2]; Table S1, ligand efficiency): 0.43 kcal/mol | IC50 (inverse agonistic/antagonistic activity) (PqsR [6]): n.i.

CCCCCCCc1[nH]c2ccc([N+](=O)[O-])cc2c(=O)c1C(N)=O [Compound R2, reference compound]
IC50 [1]: 2000 nM

Nc1cc(NCCc2ccc(F)cc2)cc(C(F)(F)F)n1 [Compound 19]
Kd (PqsR [2]): 4.7 ± 2.3 µM | -TΔS (PqsR [2]; Table S1): 6.1 ± 0.7 kcal/mol | ΔG (PqsR [2]; Table S1): -7.4 ± 0.3 kcal/mol | EE (PqsR [2]; Table S1, enthalpic efficiency): 0.64 kcal/mol | LE (PqsR [2]; Table S1, ligand efficiency): 0.35 kcal/mol

Nc1cc(N2CCC(c3ccc(F)cc3)C2)cc(C(F)(F)F)n1 (stereo not drawn) [Compound 18]
IC50 (inverse agonistic/antagonistic activity) (PqsR [6]): n.i.
